Reference: patent US20230331731A1, “CRYSTAL FORM OF PYRROLO HETEROCYCLIC DERIVATIVE AND PREPARATION METHOD THEREFOR” (Jiangsu Hengrui Pharmaceuticals Co., Ltd., priority 2020, published 2023)

Tests used:
[1] = Influencing factor stability study; type: physicochemical; details: for physical and chemical stability (conclusion): high-temperature conditions (40° C. and 60° C.) and high-humidity conditions (75% and 92.5%)
[2] = Long-term/accelerated stability study; type: physicochemical; details: for Crystal form / Purity, 1 month / physical and chemical stability (conclusion): 1 month; for physical and chemical stability (conclusion): long-term and accelerated stability conditions
Method: 1. The hydrobromide in crystal form α was left to stand under 25° C., 60% RH conditions and 40° C., 75% RH conditions to investigate its stability.
4. The fumarate in crystal form II was subjected to 6-month long-term (25° C., 60% RH) and accelerated (40° C., 75% RH) stability studies.

SMILES: Br.Br.Cn1nccc1Nc1nccc(-c2cc3n(c2)C(=O)N([C@H](CO)c2cccc(Cl)c2)C3)n1 [Hydrobromide in crystal form β]
- Color and appearance ([1]; 40° C., open, 7 days): Off-white solid
- Crystal form ([1]; 40° C., open, 7 days): Did not change
- Main peak purity ([1]; 40° C., open, 7 days): 99.13%
- Color and appearance ([1]; 40° C., open, 14 days): Off-white solid
- Crystal form ([1]; 40° C., open, 14 days): Did not change
- Main peak purity ([1]; 40° C., open, 14 days): 99.07%
- Color and appearance ([1]; 40° C., open, 30 days): Off-white solid
- Crystal form ([1]; 40° C., open, 30 days): Did not change
- Main peak purity ([1]; 40° C., open, 30 days): 98.96%
- Color and appearance ([1]; 60° C., open, 7 days): Off-white solid
- Crystal form ([1]; 60° C., open, 7 days): Did not change
- Main peak purity ([1]; 60° C., open, 7 days): 98.82%
- Color and appearance ([1]; 60° C., open, 14 days): Off-white solid
- Crystal form ([1]; 60° C., open, 14 days): Did not change
- Main peak purity ([1]; 60° C., open, 14 days): 98.82%
- Color and appearance ([1]; 60° C., open, 30 days): Off-white solid
- Crystal form ([1]; 60° C., open, 30 days): Did not change
- Main peak purity ([1]; 60° C., open, 30 days): 98.88%
- Color and appearance ([1]; 75% RH, open, 7 days): Off-white solid
- Crystal form ([1]; 75% RH, open, 7 days): Did not change
- Main peak purity ([1]; 75% RH, open, 7 days): 99.13%
- Color and appearance ([1]; 75% RH, open, 14 days): Off-white solid
- Crystal form ([1]; 75% RH, open, 14 days): Did not change
- Main peak purity ([1]; 75% RH, open, 14 days): 99.11%
- Color and appearance ([1]; 75% RH, open, 30 days): Off-white solid
- Crystal form ([1]; 75% RH, open, 30 days): Did not change
- Main peak purity ([1]; 75% RH, open, 30 days): 99.11%
- Color and appearance ([1]; 92.5% RH, open, 7 days): Off-white solid
- Crystal form ([1]; 92.5% RH, open, 7 days): Did not change
- Main peak purity ([1]; 92.5% RH, open, 7 days): 99.09%
- Color and appearance ([1]; 92.5% RH, open, 14 days): Off-white solid
- Crystal form ([1]; 92.5% RH, open, 14 days): Did not change
- Main peak purity ([1]; 92.5% RH, open, 14 days): 99.15%
- Color and appearance ([1]; 92.5% RH, open, 30 days): Off-white solid
- Crystal form ([1]; 92.5% RH, open, 30 days): Did not change
- Main peak purity ([1]; 92.5% RH, open, 30 days): 98.93%
- Color and appearance ([1]; 4500 Lux, open, 7 days): Off-white solid
- Crystal form ([1]; 4500 Lux, open, 7 days): Did not change
- Main peak purity ([1]; 4500 Lux, open, 7 days): 98.99%
- Color and appearance ([1]; 4500 Lux, open, 14 days): Off-white solid
- Crystal form ([1]; 4500 Lux, open, 14 days): Did not change
- Main peak purity ([1]; 4500 Lux, open, 14 days): 98.54%
- Color and appearance ([1]; 4500 Lux, open, 30 days): Off-white solid
- Crystal form ([1]; 4500 Lux, open, 30 days): Did not change
- Main peak purity ([1]; 4500 Lux, open, 30 days): 98.28%
- Color and appearance ([1]; Initial, 0 days): Off-white solid
- Crystal form ([1]; Initial, 0 days): Crystal form β
- Main peak purity ([1]; Initial, 0 days): 99.12%
- physical and chemical stability (conclusion) ([1]; 30 days): relatively good physical and chemical stability
- Crystal form ([2]; 25° C., 60%RH): β
- Purity, 1 month ([2]; 25° C., 60%RH): 98.99%
- Crystal form ([2]; 40° C., 75%RH): β
- Purity, 1 month ([2]; 40° C., 75%RH): 99.00%
- Purity, Initial [2]: 99.17%
- physical and chemical stability (conclusion) [2]: good physical and chemical stability

SMILES: Cn1nccc1Nc1nccc(-c2cc3n(c2)C(=O)N([C@H](CO)c2cccc(Cl)c2)C3)n1.Cn1nccc1Nc1nccc(-c2cc3n(c2)C(=O)N([C@H](CO)c2cccc(Cl)c2)C3)n1.O=C(O)/C=C/C(=O)O [Fumarate in crystal form IV]
- Color and appearance ([1]; 40° C., open, 7 days): Pale yellow solid
- Crystal form ([1]; 40° C., open, 7 days): Did not change
- Main peak purity ([1]; 40° C., open, 7 days): 99.46%
- Color and appearance ([1]; 40° C., open, 14 days): Pale yellow solid
- Crystal form ([1]; 40° C., open, 14 days): Did not change
- Main peak purity ([1]; 40° C., open, 14 days): 99.47%
- Color and appearance ([1]; 40° C., open, 30 days): Pale yellow solid
- Crystal form ([1]; 40° C., open, 30 days): Did not change
- Main peak purity ([1]; 40° C., open, 30 days): 99.26%
- Color and appearance ([1]; 60° C., open, 7 days): Pale yellow solid
- Crystal form ([1]; 60° C., open, 7 days): Did not change
- Main peak purity ([1]; 60° C., open, 7 days): 99.45%
- Color and appearance ([1]; 60° C., open, 14 days): Pale yellow solid
- Crystal form ([1]; 60° C., open, 14 days): Did not change
- Main peak purity ([1]; 60° C., open, 14 days): 99.46%
- Color and appearance ([1]; 60° C., open, 30 days): Pale yellow solid
- Crystal form ([1]; 60° C., open, 30 days): Did not change
- Main peak purity ([1]; 60° C., open, 30 days): 99.23%
- Color and appearance ([1]; 75% RH, open, 7 days): Pale yellow solid
- Crystal form ([1]; 75% RH, open, 7 days): Did not change
- Main peak purity ([1]; 75% RH, open, 7 days): 99.52%
- Color and appearance ([1]; 75% RH, open, 14 days): Pale yellow solid
- Crystal form ([1]; 75% RH, open, 14 days): Did not change
- Main peak purity ([1]; 75% RH, open, 14 days): 99.43%
- Color and appearance ([1]; 75% RH, open, 30 days): Pale yellow solid
- Crystal form ([1]; 75% RH, open, 30 days): Did not change
- Main peak purity ([1]; 75% RH, open, 30 days): 99.36%
- Color and appearance ([1]; 92.5% RH, open, 7 days): Pale yellow solid
- Crystal form ([1]; 92.5% RH, open, 7 days): Did not change
- Main peak purity ([1]; 92.5% RH, open, 7 days): 99.47%
- Color and appearance ([1]; 92.5% RH, open, 14 days): Pale yellow solid
- Crystal form ([1]; 92.5% RH, open, 14 days): Did not change
- Main peak purity ([1]; 92.5% RH, open, 14 days): 99.45%
- Color and appearance ([1]; 92.5% RH, open, 30 days): Pale yellow solid
- Crystal form ([1]; 92.5% RH, open, 30 days): Did not change
- Main peak purity ([1]; 92.5% RH, open, 30 days): 99.40%
- Color and appearance ([1]; 4500 Lux, open, 7 days): Pale yellow solid
- Crystal form ([1]; 4500 Lux, open, 7 days): Did not change
- Main peak purity ([1]; 4500 Lux, open, 7 days): 99.43%
- Color and appearance ([1]; 4500 Lux, open, 14 days): Pale yellow solid
- Crystal form ([1]; 4500 Lux, open, 14 days): Did not change
- Main peak purity ([1]; 4500 Lux, open, 14 days): 99.29%
- Color and appearance ([1]; 4500 Lux, open, 30 days): Pale yellow solid
- Crystal form ([1]; 4500 Lux, open, 30 days): Did not change
- Main peak purity ([1]; 4500 Lux, open, 30 days): 99.19%
- Color and appearance ([1]; Initial, 0 days): Pale yellow solid
- Crystal form ([1]; Initial, 0 days): Crystal form IV
- Main peak purity ([1]; Initial, 0 days): 99.47%
- physical and chemical stability (conclusion) ([1]; 30 days): relatively good physical and chemical stability
- Purity, 1 month ([2]; 25° C., 60%RH): 99.40%
- Purity, 1 month ([2]; 40° C., 75%RH): 99.34%
- Purity, Initial [2]: 99.46%
- physical and chemical stability (conclusion) [2]: good physical and chemical stability

SMILES: Br.Cn1nccc1Nc1nccc(-c2cc3n(c2)C(=O)N([C@H](CO)c2cccc(Cl)c2)C3)n1 [Hydrobromide in crystal form α]
- Color and appearance ([1]; 40° C., open, 7 days): Off-white solid
- Crystal form ([1]; 40° C., open, 7 days): Did not change
- Main peak purity ([1]; 40° C., open, 7 days): 99.42%
- Color and appearance ([1]; 40° C., open, 14 days): Off-white solid
- Crystal form ([1]; 40° C., open, 14 days): Did not change
- Main peak purity ([1]; 40° C., open, 14 days): 99.32%
- Color and appearance ([1]; 40° C., open, 30 days): Off-white solid
- Crystal form ([1]; 40° C., open, 30 days): Did not change
- Main peak purity ([1]; 40° C., open, 30 days): 99.28%
- Color and appearance ([1]; 60° C., open, 7 days): Off-white solid
- Crystal form ([1]; 60° C., open, 7 days): Did not change
- Main peak purity ([1]; 60° C., open, 7 days): 99.38%
- Color and appearance ([1]; 60° C., open, 14 days): Off-white solid
- Crystal form ([1]; 60° C., open, 14 days): Did not change
- Main peak purity ([1]; 60° C., open, 14 days): 98.99%
- Color and appearance ([1]; 60° C., open, 30 days): Off-white solid
- Crystal form ([1]; 60° C., open, 30 days): Did not change
- Main peak purity ([1]; 60° C., open, 30 days): 99.02%
- Color and appearance ([1]; 75% RH, open, 7 days): Off-white solid
- Crystal form ([1]; 75% RH, open, 7 days): Did not change
- Main peak purity ([1]; 75% RH, open, 7 days): 99.41%
- Color and appearance ([1]; 75% RH, open, 14 days): Off-white solid
- Crystal form ([1]; 75% RH, open, 14 days): Did not change
- Main peak purity ([1]; 75% RH, open, 14 days): 99.30%
- Color and appearance ([1]; 75% RH, open, 30 days): Off-white solid
- Crystal form ([1]; 75% RH, open, 30 days): Did not change
- Main peak purity ([1]; 75% RH, open, 30 days): 99.31%
- Color and appearance ([1]; 92.5% RH, open, 7 days): Off-white solid
- Crystal form ([1]; 92.5% RH, open, 7 days): Did not change
- Main peak purity ([1]; 92.5% RH, open, 7 days): 99.39%
- Color and appearance ([1]; 92.5% RH, open, 14 days): Off-white solid
- Crystal form ([1]; 92.5% RH, open, 14 days): Did not change
- Main peak purity ([1]; 92.5% RH, open, 14 days): 99.42%
- Color and appearance ([1]; 92.5% RH, open, 30 days): Off-white solid
- Crystal form ([1]; 92.5% RH, open, 30 days): Did not change
- Main peak purity ([1]; 92.5% RH, open, 30 days): 99.28%
- Color and appearance ([1]; 4500 Lux, open, 7 days): Off-white solid
- Crystal form ([1]; 4500 Lux, open, 7 days): Did not change
- Main peak purity ([1]; 4500 Lux, open, 7 days): 99.09%
- Color and appearance ([1]; 4500 Lux, open, 14 days): Off-white solid
- Crystal form ([1]; 4500 Lux, open, 14 days): Did not change
- Main peak purity ([1]; 4500 Lux, open, 14 days): 98.94%
- Color and appearance ([1]; 4500 Lux, open, 30 days): Off-white solid
- Crystal form ([1]; 4500 Lux, open, 30 days): Did not change
- Main peak purity ([1]; 4500 Lux, open, 30 days): 98.50%
- physical and chemical stability (conclusion) ([1]; 30 days): relatively good physical and chemical stability
- Crystal form ([2]; 25° C., 60%RH): α
- Purity, 1 month ([2]; 25° C., 60%RH): 99.33%
- Crystal form ([2]; 40° C., 75%RH): α
- Purity, 1 month ([2]; 40° C., 75%RH): 99.24%
- Purity, Initial [2]: 99.43%
- physical and chemical stability (conclusion) [2]: good physical and chemical stability
